# Target: sn-1-specific diacylglycerol lipase ABHD11 (Mus musculus) (UniProt Q8K4F5)
# Test: ABHD11 inhibition in proteome, IC50 – biochemical, gel-based fluorescent ABPP, mouse, set 2, selectivity assay for LYPLA1 inhibitor project, late-stage follow-up (AID 504507)
# Conditions: fluorescent probe labeling
# sn-1-specific diacylglycerol lipase ABHD11 (Mus musculus), sequence (Q8K4F5 whole entry, looked up): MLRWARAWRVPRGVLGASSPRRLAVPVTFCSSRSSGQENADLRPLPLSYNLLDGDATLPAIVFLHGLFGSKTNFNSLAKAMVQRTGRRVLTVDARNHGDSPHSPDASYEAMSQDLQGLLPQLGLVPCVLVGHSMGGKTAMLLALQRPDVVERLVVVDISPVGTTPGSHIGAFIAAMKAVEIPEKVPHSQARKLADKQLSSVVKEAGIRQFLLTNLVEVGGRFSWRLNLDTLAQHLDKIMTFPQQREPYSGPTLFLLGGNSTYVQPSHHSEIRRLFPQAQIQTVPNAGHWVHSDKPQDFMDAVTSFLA
row,IC50 [nM],SMILES
1,15,CCC1CCCCN1C(=O)n1ncc(C(O)(c2ccccc2)c2ccccc2)n1 (configuration not stated)
2,1,COCC1CCCCN1C(=O)n1ncc(C(O)(c2ccccc2)c2ccccc2)n1 (configuration not stated)

# Reference: PubChem BioAssay AID504507 (The Scripps Research Institute Molecular Screening Center, 2011)
